Organism: Rattus norvegicus
Test: Open TG-GATES - Regimen: Single
Type: toxicity, organism-based, Sprague-Dawley
Parameters: regimen Single, gender Male, age 6 weeks
Settings: in vivo, po, route gavage; for APTT / Bas / Eos / Fbg / Hb / Ht / Lym / MCH / MCHC / MCV / Mono / Neu / Plat / RBC / Ret / WBC: tissue Blood; for KIDNEY_L / KIDNEY_R / KIDNEY_TOTAL: tissue Kidney; for LIVER: tissue Liver; for ALP / ALT / AST / CRE / DBIL / GLC / IP / K / LDH / Na / PL / RALB / TBIL / TC / TG / TP / gamma-GTP: tissue Plasma
[1] = 100 mg/kg, 24 h, dose level Low
[2] = 300 mg/kg, 3 h, dose level Middle
[3] = 300 mg/kg, 6 h, dose level Middle
[4] = 300 mg/kg, 9 h, dose level Middle
[5] = 300 mg/kg, 24 h, dose level Middle

SMILES: CN(C)CCC=C1c2ccccc2COc2ccccc21 [DOXEPIN]
- TERMINAL_BW (100 mg/kg, 9 h, dose level Low): 193.4 g
- APTT (100 mg/kg, 9 h, dose level Low): 24.3 s
- Bas (100 mg/kg, 9 h, dose level Low): 0%
- Eos (100 mg/kg, 9 h, dose level Low): 0.8%
- Fbg (100 mg/kg, 9 h, dose level Low): 284.4 mg/dL
- Hb (100 mg/kg, 9 h, dose level Low): 13.5 g/dL
- Ht (100 mg/kg, 9 h, dose level Low): 40.9%
- Lym (100 mg/kg, 9 h, dose level Low): 80.4%
- MCH (100 mg/kg, 9 h, dose level Low): 21.9 pg
- MCHC (100 mg/kg, 9 h, dose level Low): 32.9%
- MCV (100 mg/kg, 9 h, dose level Low): 66.5 fL
- Mono (100 mg/kg, 9 h, dose level Low): 2.4%
- Neu (100 mg/kg, 9 h, dose level Low): 16%
- Plat (100 mg/kg, 9 h, dose level Low): 117.4 x10_4/uL
- RBC (100 mg/kg, 9 h, dose level Low): 614.6 x10_4/ul
- Ret (100 mg/kg, 9 h, dose level Low): 8.5%
- WBC (100 mg/kg, 9 h, dose level Low): 81.6 x10_2/uL
- KIDNEY_L (100 mg/kg, 9 h, dose level Low): 0.9 g
- KIDNEY_R (100 mg/kg, 9 h, dose level Low): 0.9 g
- KIDNEY_TOTAL (100 mg/kg, 9 h, dose level Low): 1.8 g
- LIVER (100 mg/kg, 9 h, dose level Low): 7.7 g
- ALP (100 mg/kg, 9 h, dose level Low): 1637.2 IU/L
- ALT (100 mg/kg, 9 h, dose level Low): 33.8 IU/L
- AST (100 mg/kg, 9 h, dose level Low): 69.4 IU/L
- CRE (100 mg/kg, 9 h, dose level Low): 0.2 mg/dL
- DBIL (100 mg/kg, 9 h, dose level Low): 0.002 mg/dL
- GLC (100 mg/kg, 9 h, dose level Low): 167 mg/dL
- IP (100 mg/kg, 9 h, dose level Low): 10.4 mg/dL
- K (100 mg/kg, 9 h, dose level Low): 4 meq/L
- LDH (100 mg/kg, 9 h, dose level Low): 99.6 IU/L
- Na (100 mg/kg, 9 h, dose level Low): 144.8 meq/L
- PL (100 mg/kg, 9 h, dose level Low): 135 mg/dL
- RALB (100 mg/kg, 9 h, dose level Low): 2.5 g/dL
- TBIL (100 mg/kg, 9 h, dose level Low): 0.062 mg/dL
- TC (100 mg/kg, 9 h, dose level Low): 72.6 mg/dL
- TG (100 mg/kg, 9 h, dose level Low): 26.6 mg/dL
- TP (100 mg/kg, 9 h, dose level Low): 5.3 g/dL
- gamma-GTP (100 mg/kg, 9 h, dose level Low): 1 IU/L
- TERMINAL_BW [1]: 208.9 g
- APTT [1]: 17.3 s
- Bas [1]: 0%
- Eos [1]: 0.8%
- Fbg [1]: 264.6 mg/dL
- Hb [1]: 14 g/dL
- Ht [1]: 41.3%
- Lym [1]: 78.2%
- MCH [1]: 21.9 pg
- MCHC [1]: 34%
- MCV [1]: 64.4 fL
- Mono [1]: 2.6%
- Neu [1]: 17.4%
- Plat [1]: 125.2 x10_4/uL
- RBC [1]: 641.6 x10_4/ul
- Ret [1]: 7.3%
- WBC [1]: 97.7 x10_2/uL
- KIDNEY_L [1]: 0.9 g
- KIDNEY_R [1]: 0.9 g
- KIDNEY_TOTAL [1]: 1.8 g
- ALP [1]: 2097.8 IU/L
- ALT [1]: 45 IU/L
- AST [1]: 75.8 IU/L
- CRE [1]: 0.2 mg/dL
- DBIL [1]: 0.006 mg/dL
- GLC [1]: 176.4 mg/dL
- IP [1]: 7.5 mg/dL
- K [1]: 4 meq/L
- LDH [1]: 112.6 IU/L
- Na [1]: 142 meq/L
- PL [1]: 155.8 mg/dL
- RALB [1]: 2.6 g/dL
- TBIL [1]: 0.04 mg/dL
- TC [1]: 80.4 mg/dL
- TG [1]: 101 mg/dL
- TP [1]: 5.6 g/dL
- gamma-GTP [1]: 1 IU/L
- TERMINAL_BW [2]: 198.6 g
- APTT [2]: 17.8 s
- Bas [2]: 0.2%
- Eos [2]: 0.4%
- Fbg [2]: 275.2 mg/dL
- Hb [2]: 12.9 g/dL
- Ht [2]: 40%
- Lym [2]: 73%
- MCH [2]: 21.7 pg
- MCHC [2]: 32.1%
- MCV [2]: 67.4 fL
- Mono [2]: 3.2%
- Neu [2]: 22.4%
- Plat [2]: 112.8 x10_4/uL
- RBC [2]: 593.6 x10_4/ul
- Ret [2]: 10%
- WBC [2]: 63.7 x10_2/uL
- KIDNEY_L [2]: 0.9 g
- KIDNEY_R [2]: 0.9 g
- KIDNEY_TOTAL [2]: 1.8 g
- LIVER [2]: 9 g
- ALP [2]: 1422.6 IU/L
- ALT [2]: 48 IU/L
- AST [2]: 76.6 IU/L
- CRE [2]: 0.1 mg/dL
- DBIL [2]: 0.002 mg/dL
- GLC [2]: 187.4 mg/dL
- IP [2]: 10 mg/dL
- K [2]: 3.9 meq/L
- LDH [2]: 71.2 IU/L
- Na [2]: 145.6 meq/L
- PL [2]: 147.6 mg/dL
- RALB [2]: 2.4 g/dL
- TBIL [2]: 0.044 mg/dL
- TC [2]: 78.6 mg/dL
- TG [2]: 64.6 mg/dL
- TP [2]: 5.3 g/dL
- gamma-GTP [2]: 1.2 IU/L
- TERMINAL_BW [3]: 194.4 g
- APTT [3]: 17.3 s
- Bas [3]: 0.2%
- Eos [3]: 0.8%
- Fbg [3]: 290 mg/dL
- Hb [3]: 12.9 g/dL
- Ht [3]: 40%
- Lym [3]: 74.2%
- MCH [3]: 21.3 pg
- MCHC [3]: 32.4%
- MCV [3]: 66 fL
- Mono [3]: 3%
- Neu [3]: 21%
- Plat [3]: 126.3 x10_4/uL
- RBC [3]: 605.6 x10_4/ul
- Ret [3]: 9.5%
- WBC [3]: 84.5 x10_2/uL
- KIDNEY_L [3]: 0.9 g
- KIDNEY_R [3]: 0.9 g
- KIDNEY_TOTAL [3]: 1.8 g
- LIVER [3]: 7.8 g
- ALP [3]: 1630.2 IU/L
- ALT [3]: 42.2 IU/L
- AST [3]: 83.2 IU/L
- CRE [3]: 0.1 mg/dL
- DBIL [3]: 0 mg/dL
- GLC [3]: 185 mg/dL
- IP [3]: 11.1 mg/dL
- K [3]: 3.7 meq/L
- LDH [3]: 85.2 IU/L
- Na [3]: 146.2 meq/L
- PL [3]: 141.6 mg/dL
- RALB [3]: 2.5 g/dL
- TBIL [3]: 0.054 mg/dL
- TC [3]: 82.6 mg/dL
- TG [3]: 11.2 mg/dL
- TP [3]: 5.4 g/dL
- gamma-GTP [3]: 1.4 IU/L
- TERMINAL_BW [4]: 192.2 g
- APTT [4]: 17.8 s
- Bas [4]: 0%
- Eos [4]: 1%
- Fbg [4]: 275 mg/dL
- Hb [4]: 13.2 g/dL
- Ht [4]: 39.9%
- Lym [4]: 77.6%
- MCH [4]: 21.9 pg
- MCHC [4]: 33%
- MCV [4]: 66.4 fL
- Mono [4]: 2.6%
- Neu [4]: 18.4%
- Plat [4]: 130.9 x10_4/uL
- RBC [4]: 603.6 x10_4/ul
- Ret [4]: 9.4%
- WBC [4]: 76.7 x10_2/uL
- KIDNEY_L [4]: 0.9 g
- KIDNEY_R [4]: 0.9 g
- KIDNEY_TOTAL [4]: 1.7 g
- LIVER [4]: 7.6 g
- ALP [4]: 1517.4 IU/L
- ALT [4]: 38.2 IU/L
- AST [4]: 64.8 IU/L
- CRE [4]: 0.1 mg/dL
- DBIL [4]: 0.002 mg/dL
- GLC [4]: 184 mg/dL
- IP [4]: 10.4 mg/dL
- K [4]: 3.9 meq/L
- LDH [4]: 74.2 IU/L
- Na [4]: 145.2 meq/L
- PL [4]: 142 mg/dL
- RALB [4]: 2.5 g/dL
- TBIL [4]: 0.06 mg/dL
- TC [4]: 79.2 mg/dL
- TG [4]: 12.2 mg/dL
- TP [4]: 5.5 g/dL
- gamma-GTP [4]: 1 IU/L
- TERMINAL_BW [5]: 185.6 g
- APTT [5]: 16.9 s
- Bas [5]: 0%
- Eos [5]: 0.8%
- Fbg [5]: 277.2 mg/dL
- Hb [5]: 14.8 g/dL
- Ht [5]: 43.9%
- Lym [5]: 81.2%
- MCH [5]: 22 pg
- MCHC [5]: 33.8%
- MCV [5]: 65.2 fL
- Mono [5]: 2.2%
- Neu [5]: 15.6%
- Plat [5]: 130.7 x10_4/uL
- RBC [5]: 672.8 x10_4/ul
- Ret [5]: 7.4%
- WBC [5]: 65.5 x10_2/uL
- KIDNEY_L [5]: 0.9 g
- KIDNEY_R [5]: 0.9 g
- KIDNEY_TOTAL [5]: 1.8 g
- LIVER [5]: 7.3 g
- ALP [5]: 1482.6 IU/L
- ALT [5]: 31.8 IU/L
- AST [5]: 59 IU/L
- CRE [5]: 0.2 mg/dL
- DBIL [5]: 0 mg/dL
- GLC [5]: 173.2 mg/dL
- IP [5]: 9.1 mg/dL
- K [5]: 4.1 meq/L
- LDH [5]: 87 IU/L
- Na [5]: 144.6 meq/L
- PL [5]: 131.8 mg/dL
- RALB [5]: 2.6 g/dL
- TBIL [5]: 0.046 mg/dL
- TC [5]: 74.4 mg/dL
- TG [5]: 30.6 mg/dL
- TP [5]: 5.7 g/dL
- gamma-GTP [5]: 1 IU/L

Reference: ChEMBL document CHEMBL3885861, “Open TG-GATES”
